The text below walks through data of patent US20250255832A1, “SKIN ADHESIVE PATCH FOR NEGATIVE PRESSURE STIMULATION AND MANUFACTURING METHOD THEREFOR” (Research & Business Foundation Sungkyunkwan University, priority 2022, published 2025).

“Also recorded” adds a separate entry of the source. Where two headings read alike, the source gives them in different places.

In data set [1] the test system is atopic dermatitis-induced mice. As to the kind of experiment: transepidermal water loss in atopic dermatitis-induced mice, drugs combined with d-SCC. In kind it is in vivo. The conditions noted are these: applied in combination with the d-SCC patch. From the text: FIG. 13 includes: (a) images showing the skin recovery progression in atopic dermatitis-induced mice following the combined application of various drugs and the d-SCC; and (b) a graph illustrating transepidermal water loss over time resulting from the combined application of the respective drugs and the d-SCC.

Data set [2] is described as follows: delivery depth by the d-SCC for various drugs with different molecular weights on pig skin. As to conditions: applied in combination with d-SCC. Type of data set: in vitro ADME. An excerpt:
FIG. 11 includes: (a) a graph showing the improvement in delivery depth by the d-SCC for various drugs with different molecular weights on pig skin; and (b) images showing the delivered states of the respective drugs under each condition.

For data set [3] the following is noted: artificial skin, vs without a patch.

Regarding `Cc1occc(=O)c1O` [Maltol], the “transepidermal water loss (TEWL) of the skin” value in data set [1] was “recovered to a level closest to that of normal (control) skin”. Also, in data set [2], the “delivery depth of drug applied together with d-SCC” value (shortened to “delivery depth … with d-SCC”) is reported as “greatest delivery depth among the tested conditions; also recorded: excellent delivery depth”. In the case of `CC1=C(/C=C/C(C)=C/C=C/C(C)=C/CO)C(C)(C)CCC1` [Retinol], in data set [2], the “delivery depth … with d-SCC” value is recorded as “excellent delivery depth”. For the molecule `CCN(CC)c1ccc2c(-c3ccccc3C(=O)O)c3ccc(=[N+](CC)CC)cc-3oc2c1.[Cl-]` [rhodamine B], the figures for the “delivery depth improved compared to w/o patch” value in data set [3] (30 minutes after removal of the patch) and in data set [3] (after 30 minutes of patch application) were “up to 95%” and “up to 138%”, respectively.

For the molecule Hyaluronic acid, in data set [2], the “delivery depth … with d-SCC” value was “excellent delivery depth”. On to Ramoplanin, for which, in data set [2], the “delivery depth … with d-SCC” value is recorded as “excellent delivery depth”.

B1: Ovalbumin (protein, UniProt P01012 2-386, looked up)
Ovalbumin: GSIGAASMEFCFDVFKELKVHHANENIFYCPIAIMSALAMVYLGAKDSTRTQINKVVRFDKLPGFGDSIEAQCGTSVNVHSSLRDILNQITKPNDVYSFSLASRLYAEERYPILPEYLQCVKELYRGGLEPINFQTAADQARELINSWVESQTNGIIRNVLQPSSVDSQTAMVLVNAIVFKGLWEKAFKDEDTQAMPFRVTEQESKPVQMMYQIGLFRVASMASEKMKILELPFASGTMSMLVLLPDEVSGLEQLESIINFEKLTEWTSSNVMEERKIKVYLPRMKMEEKYNLTSVLMAMGITDVFSSSANLSGISSAESLKISQAVHAAHAEINEAGREVVGSAEAGVDAASVSEEFRADHPFLFCIKHIATNAVLFFGRCVSP
notes: hydrophilic compound
Consider B1, for which the “delivery depth … with d-SCC” value in data set [2] was “excellent delivery depth”.
